Experimental data published in PubChem BioAssay (NCI).
“And” between values parts separate entries of the source, which are not always exact repeats. Equal values may be shown once.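 Test compounds were applied to cells in 96-well plates for 48 hours at 5 doses. GI50: concentration for 50% inhibition of growth. TGI marks complete inhibition of growth.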

Legend:
Assay in all cases: DTP human tumour cell line panel, 48 h
[1] = system: CAKI-1 renal
[2] = system: HCT-15 colon
[3] = system: A549 NSCLC
[4] = system: 786-0 renal
[5] = system: DU-145 prostate
[6] = system: SN12C renal
[7] = system: NCI-H460 lung
[8] = system: SR leukemia
[9] = system: K-562 leukemia
[10] = system: LOX IMVI melanoma

Row | SMILES | GI50 [1] | TGI [1] | GI50 [2] | TGI [2] | GI50 [3] | TGI [3] | GI50 [4] | TGI [4] | GI50 [5] | TGI [5] | GI50 [6] | TGI [6] | GI50 [7] | TGI [7] | GI50 [8] | TGI [8] | GI50 [9] | TGI [9] | GI50 [10] | TGI [10]
1 | COc1ccc(-c2cn[nH]c2-c2cc(OC)c3c(c2)OCO3)cc1 | 262 nM | 24.9 µM | 79.4 nM | 14.4 µM | 300 nM | 20.1 µM | 585 nM | 14.2 µM | 402 nM | 14.9 µM | 1100 nM | 27.7 µM | 335 nM | 11.3 µM | 63.1 nM | 16.8 µM | 46.7 nM | > 66.2 µM | 599 nM | 19.2 µM
2 | CC(C(=O)c1ccccc1)C(c1ccccc1)N1CCOCC1 (configuration not stated) |  | > 100 µM |  | > 100 µM |  | > 100 µM |  | > 100 µM |  | > 100 µM |  | > 100 µM |  | > 100 µM |  | > 100 µM |  | > 100 µM |  | > 100 µM
3 | O=C1c2ccccc2-c2c1c1c(=O)[nH]c3ccccc3c1n2Cc1ccccc1 | 33500 nM | > 100 µM | 59100 nM | > 100 µM | > 100000 nM | > 100 µM | 33000 nM | 85 µM | 43800 nM | > 100 µM | 35900 nM | > 100 µM | 61700 nM | > 100 µM | > 100000 nM | > 100 µM | > 100000 nM | > 100 µM | 31300 nM | > 100 µM
4 | C#Cc1cccc(N2C(=O)CCC2=O)c1 |  | 29 µM |  | 50 µM |  | 42.7 µM |  | 40.5 µM |  | 28.3 µM |  | 33.6 µM |  | 71.7 µM |  | 4.74 µM |  | 20.9 µM |  | 32 µM
5 | CCCNNC(=O)/C=C/c1ccc(CNCCc2c(C)[nH]c3ccccc23)cc1 | 36.9 nM | 0.123 µM | 95.4 nM | 3.16 µM | 68.9 nM | 2.02 µM | 57 nM | 1.2 µM | 32.2 nM | 3.35 µM | 63.4 nM | 3.76 µM | 72.6 nM | 3.57 µM | 19.1 nM | 4.26 µM | 11.1 nM | 3.78 µM | 36.8 nM | 0.0797 µM
6 | COc1cc(/C=C2\C(=O)Nc3cc(C)c(O)cc32)cc(OC)c1OC | 2980 nM | 9.66 µM | 2840 nM | 14.5 µM | 6130 nM | > 79.6 µM | 10400 nM | 23.5 µM | 3670 nM | 17.1 µM | 6070 nM | 23.1 µM | 3200 nM | 11.7 µM | 857 nM | 5.84 µM | 1670 nM | 10.4 µM | 3660 nM | 14.4 µM
7 | CNC(=O)c1ccc(N2CCN(Cc3ccc4nc(C)c(=O)[nH]c4c3F)CC2)c(F)n1 | 49400 nM | > 100 µM | > 100000 nM | > 100 µM | > 100000 nM | > 100 µM | 47400 nM | > 100 µM | > 100000 nM | > 100 µM | 57700 nM | > 100 µM | 73800 nM | > 100 µM | 63100 nM | > 100 µM | > 100000 nM | > 100 µM | > 100000 nM | > 100 µM
8 | CC(C)(C)C(=O)c1c(C(F)(F)F)n([O-])c2ccccc2[n+]1=O | 282 nM | 0.811 µM | 365 nM | 0.914 µM | 485 nM | 1.26 µM | 729 nM | 2.46 µM | 356 nM | 0.892 µM | 665 nM | 2.32 µM | 439 nM | 1.52 µM |  | 0.209 µM | 757 nM | 2.38 µM | 396 nM | 1.7 µM
9 | C=C1C(O)C2C(=C(CCc3ccccc3)C13CC3)C(=O)C(C)(CO)C2O (configuration not stated) | > 100000 nM | > 100 µM | > 100000 nM | > 100 µM | > 100000 nM | > 100 µM | > 100000 nM | > 100 µM | > 100000 nM | > 100 µM | > 100000 nM | > 100 µM | > 100000 nM | > 100 µM | 38600 nM | > 100 µM | > 100000 nM | > 100 µM | > 100000 nM | > 100 µM
10 | O=c1c(Oc2ccc(F)cc2F)cc2cnc(NC3CCOCC3)nc2n1CCCO | > 25000 nM | > 25 µM | > 25000 nM | > 25 µM | > 25000 nM | > 25 µM | > 25000 nM | > 25 µM | > 25000 nM | > 25 µM | > 25000 nM | > 25 µM | > 25000 nM | > 25 µM | > 25000 nM | > 25 µM | > 25000 nM | > 25 µM | > 25000 nM | > 25 µM
11 | COC(=O)c1c2c(c[n+]([O-])c1C)C(=O)C=CC2=O | 1700 nM | 3.16 µM | 1780 nM | 3.51 µM | 16100 nM | 40.1 µM | 2560 nM | 6.39 µM | 1850 nM | 3.54 µM | 1760 nM | 3.23 µM | 12800 nM | 28 µM | 2720 nM | > 100 µM | 2510 nM | > 100 µM | 1960 nM | 4.18 µM
12 | Cc1cc(=O)oc2cc(OC(=O)N(C)C)c(Cl)cc12 |  | > 100 µM |  | > 100 µM |  | > 100 µM |  | > 100 µM |  | > 100 µM |  | > 100 µM |  | > 100 µM |  | > 100 µM |  | > 100 µM |  | > 100 µM
13 | FC(F)c1nc2ccccc2n1-c1nc(N2CCOCC2)nc(N2CCOCC2)n1 | 197 nM and 268 nM | 4.25 µM and 2.35 µM | 389 nM and 479 nM | > 100 µM | 518 nM and 584 nM | > 100 µM | 146 nM and 223 nM | 1.43 µM and 2.94 µM | 420 nM and 432 nM | > 100 µM | 247 nM and 332 nM | > 100 µM | 276 nM and 303 nM | > 100 µM | 686 nM and 578 nM | > 100 µM | 4090 nM and 5150 nM | > 100 µM | 376 nM and 491 nM | 
14 | Cc1nc(SCC(=O)Nc2nc(-c3ccc(Cl)cc3)cs2)n(Nc2ccccc2)c1C | 3930 nM | 22.6 µM | 5740 nM | 23.3 µM | 2900 nM | 11.6 µM | 3600 nM | 13.7 µM | 5640 nM | 18.7 µM | 2380 nM | 10.1 µM | 2890 nM | 11 µM | 3810 nM | > 100 µM | 120 nM | > 100 µM | 1780 nM | 3.72 µM
15 | C#CCOc1cccc(-c2ncnc3cc(NC(=O)CCl)ccc23)c1 | 200 nM | 1.76 µM | 17.9 nM | 1.71 µM | 451 nM | 3.96 µM | 208 nM | 2.26 µM | 1160 nM | 2.47 µM | 115 nM | 1.41 µM | 38 nM | 1.45 µM | 36.3 nM | > 100 µM | 61.2 nM |  | 38.5 nM | 1.34 µM
16 | CC(C)=CCc1c(OC(=O)c2c(C)cc(O)cc2O)cc(CO)c(CO)c1O |  | 20.5 µM |  | 34.6 µM |  | 62.2 µM |  | > 100 µM |  | 70.4 µM |  | 34.9 µM |  | 39.2 µM |  | 94.5 µM |  | 32.9 µM |  | 40.9 µM
17 | Cn1cc(C2=C(c3cn(CCCCN)c4ccccc34)C(=O)NC2=O)c2ccccc21 | > 25000 nM | > 25 µM | > 25000 nM | > 25 µM | > 25000 nM | > 25 µM | > 25000 nM | > 25 µM | > 25000 nM | > 25 µM | > 25000 nM | > 25 µM | > 25000 nM | > 25 µM | > 25000 nM | > 25 µM | > 25000 nM | > 25 µM | > 25000 nM | > 25 µM
18 | Cc1ccc(C)c2c1C(O)(C#Cc1ccccc1)c1ccccc1C2(O)C#Cc1ccccc1 (configuration not stated) | 2380 nM | > 30.7 µM | 1030 nM | > 100 µM | 3120 nM | > 100 µM | 3720 nM | > 35.7 µM | 3320 nM | > 100 µM | 3040 nM | 89.2 µM | 2380 nM | 12 µM | 2520 nM | > 100 µM | 4400 nM | > 100 µM | 3440 nM | > 64.2 µM
19 | Cc1cnc(NC(=O)Nc2cc(Br)c(C)cc2OC[C@@H]2CNCCO2)cn1 | 1740 nM and 852 nM | > 10 µM and 6.16 µM | 1650 nM and 2380 nM | > 10 µM and 12.8 µM | 1710 nM and 1930 nM | > 10 µM and 15.8 µM | 417 nM and 353 nM | > 10 µM and 5 µM | 2080 nM and 659 nM | > 10 µM and 11.5 µM | 3800 nM and 2500 nM | > 10 µM and 12.1 µM | 1470 nM and 928 nM | > 10 µM and 5.79 µM | 306 nM and 196 nM | 1.66 µM and 3.72 µM | 466 nM and 419 nM | 6.27 µM and 2.5 µM | 828 nM and 1450 nM | 2.46 µM and 4.97 µM
20 | CC(C)CCC(=O)c1ccoc1 |  | > 100 µM |  | > 100 µM |  | > 100 µM |  | > 100 µM |  | > 100 µM |  | > 100 µM |  | > 100 µM |  | > 100 µM |  | > 100 µM |  | > 100 µM
21 | CC(=O)O[C@H]1CC[C@@]2(C)C(=CC[C@H]3[C@@H]4CC[C@H](c5cc(C(F)(F)F)n(C(C)=O)n5)[C@@]4(C)CC[C@@H]32)C1 |  | 24.5 µM |  | 21.8 µM |  | 20.5 µM |  | 17.7 µM |  | 23.5 µM |  | 20.8 µM |  | 12.6 µM |  | 14.8 µM |  | 12.5 µM |  | 22.4 µM
22 | O=S(=O)(Nc1ccccc1Cl)c1ccc(-c2cnc(C3CC3)o2)cc1 | 321 nM | 82 µM | 282 nM | > 100 µM | 867 nM | 99.7 µM | 809 nM | > 85.1 µM | 940 nM | > 100 µM | 797 nM | > 100 µM | 397 nM | 15.6 µM | 68.4 nM | > 55.7 µM | 84.5 nM | > 100 µM | 790 nM | > 90.8 µM
23 | Oc1[nH]c2ccccc2c1N=Nc1ccccn1 |  | > 100 µM |  | > 100 µM |  | > 100 µM |  | 29.6 µM |  | > 100 µM |  | > 100 µM |  | 35.6 µM |  | 47.6 µM |  | > 100 µM |  | > 100 µM
